Test system: PTZ induced rat model
Test: PTZ (pentylene-tetrazole) induced convulsions, anti-convulsant activity in Wistar rats
Format: in vivo
Settings: male Wistar rats, n=6 per group, 60 mg/kg PTZ intraperitoneally 1 hr after test item; for Straub Tail / Clonic Convulsions / Stupor / Tonic Convulsions: doses per Table 1; for Clonic Convulsions / Stupor / Tonic Convulsions: mean; for Recovery: outcome recovery or death
Method: The purpose of this study is to evaluate the effect of anti-convulsant activity of the test compound in Wistar Rats.
The systemic administration of PTZ is one of the most commonly employed methods for anti-convulsant screening. The preference has been given to this model due to its ease of performance, reliability, ease of expressing results and the shorter time-period to produce convulsions.
60 mg/kg of PTZ was injected per body weight, intraperitoneally 1 hr after the test item administration.
All animals were acclimatized for five days and seizures were induced by administering 60 mg/kg PTZ per body weight, 1 hr after test item administration. Normal control group was injected with phosphate buffer solution.
As Group 1 (Vehicle control), Group 2 served as diseased control, Group 3 was Reference standard and Group 4, Group 5 and Group 6 served as test substance. The dose was administered for short term (single day administration) or long term (14 or 21 days) after acclimatization.
The time was recorded for convulsion phase clonic, tonic and stupor after test administration. All values were expressed as MEAN±STD. The significant difference between the treatment and control group was estimated using oneway ANOVA with Dennett's test. All results of the statistical analysis were summarized in separate tables.

SMILES | Straub Tail | Clonic Convulsions | Stupor | Tonic Convulsions | Recovery
C[N+](C)(C)[C@@H](Cc1c[nH]c(=S)[nH]1)C(=O)O [L-Ergothioneine, L-ergothioneine] | Absent | 4.66 s | 70.33 s | 8.00 s | Recovery
CC[C@@H](C(N)=O)N1CCCC1=O [Levetiracetam, reference compound] | Absent | 3.33 s | 56.16 s | 5.83 s | Recovery
CCCCCCCCCC(=O)OCC(COC(=O)CCCCCCCCC)OC(=O)CCCCCCCCC [Tridecanoin] | Absent | 5.00 s | 74.16 s | 7.66 s | Recovery
